Test results taken from patent US20260049077A1, “Neurotrophic Receptor Tyrosine Kinase (NTRK) Inhibitors and Methods Using Same” (Baylor College of Medicine, priority 2022, published 2026).
Like-named read-outs stand apart in the source and are kept apart here.

Key:
NTRK3 = NTRK3 (Homo sapiens (Human), UniProt Q16288); experiment: NTRK3 inhibition (IC50); conditions: read-out: NTRK3 IC50
NTRK1 = NTRK1 (Homo sapiens (Human), UniProt P04629); experiment: NTRK1 inhibition (IC50)
NTRK2 = NTRK2 (Homo sapiens (Human), UniProt Q16620); experiment: NTRK2 inhibition (IC50); assay type: biochemical
NTRK2, sequence (Q16620 32-822): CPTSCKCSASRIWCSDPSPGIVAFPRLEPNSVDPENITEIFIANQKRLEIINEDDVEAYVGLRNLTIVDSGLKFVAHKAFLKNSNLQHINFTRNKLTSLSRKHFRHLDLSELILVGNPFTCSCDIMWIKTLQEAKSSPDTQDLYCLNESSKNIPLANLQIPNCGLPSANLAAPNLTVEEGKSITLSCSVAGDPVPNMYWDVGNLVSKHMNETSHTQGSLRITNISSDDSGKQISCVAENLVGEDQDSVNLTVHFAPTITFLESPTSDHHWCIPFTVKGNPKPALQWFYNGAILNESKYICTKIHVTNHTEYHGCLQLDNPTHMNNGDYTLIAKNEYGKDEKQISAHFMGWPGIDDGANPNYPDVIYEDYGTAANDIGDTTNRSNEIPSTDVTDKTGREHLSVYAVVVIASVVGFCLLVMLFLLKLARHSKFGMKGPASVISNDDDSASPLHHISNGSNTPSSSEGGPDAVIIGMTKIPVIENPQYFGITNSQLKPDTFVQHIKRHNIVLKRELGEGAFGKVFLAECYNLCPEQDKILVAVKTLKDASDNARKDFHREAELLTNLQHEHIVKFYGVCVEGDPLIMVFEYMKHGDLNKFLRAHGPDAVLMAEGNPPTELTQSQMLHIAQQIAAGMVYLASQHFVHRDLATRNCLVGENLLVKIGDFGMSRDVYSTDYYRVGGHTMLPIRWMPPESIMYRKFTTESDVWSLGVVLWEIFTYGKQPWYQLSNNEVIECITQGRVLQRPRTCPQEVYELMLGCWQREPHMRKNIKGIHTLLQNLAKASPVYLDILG

[1] = Metabolic stability in mouse liver microsomes (MLM)
[2] = Metabolic stability in human liver microsomes (HLM)

NTRK3, sequence (Q16288 32-839): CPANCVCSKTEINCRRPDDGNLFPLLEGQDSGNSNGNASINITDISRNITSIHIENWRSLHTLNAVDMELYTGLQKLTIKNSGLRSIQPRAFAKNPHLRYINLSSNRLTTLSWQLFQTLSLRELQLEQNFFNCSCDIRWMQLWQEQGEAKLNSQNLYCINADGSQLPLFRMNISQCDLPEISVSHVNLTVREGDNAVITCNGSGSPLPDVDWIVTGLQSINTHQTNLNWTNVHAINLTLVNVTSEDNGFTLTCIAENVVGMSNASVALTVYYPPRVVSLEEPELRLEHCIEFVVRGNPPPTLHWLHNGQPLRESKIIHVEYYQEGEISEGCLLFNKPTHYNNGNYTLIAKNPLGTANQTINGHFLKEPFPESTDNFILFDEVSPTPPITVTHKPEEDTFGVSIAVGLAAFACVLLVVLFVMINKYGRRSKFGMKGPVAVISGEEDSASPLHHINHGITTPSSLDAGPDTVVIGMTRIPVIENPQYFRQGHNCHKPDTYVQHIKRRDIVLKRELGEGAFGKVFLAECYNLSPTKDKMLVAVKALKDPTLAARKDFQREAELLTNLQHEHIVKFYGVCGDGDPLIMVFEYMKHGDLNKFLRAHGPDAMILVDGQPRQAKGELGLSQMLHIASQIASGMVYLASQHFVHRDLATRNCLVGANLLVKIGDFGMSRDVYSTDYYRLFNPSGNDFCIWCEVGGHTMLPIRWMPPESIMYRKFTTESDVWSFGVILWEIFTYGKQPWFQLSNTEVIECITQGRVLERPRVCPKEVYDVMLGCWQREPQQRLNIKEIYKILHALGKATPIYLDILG
NTRK1, sequence (P04629 33-796): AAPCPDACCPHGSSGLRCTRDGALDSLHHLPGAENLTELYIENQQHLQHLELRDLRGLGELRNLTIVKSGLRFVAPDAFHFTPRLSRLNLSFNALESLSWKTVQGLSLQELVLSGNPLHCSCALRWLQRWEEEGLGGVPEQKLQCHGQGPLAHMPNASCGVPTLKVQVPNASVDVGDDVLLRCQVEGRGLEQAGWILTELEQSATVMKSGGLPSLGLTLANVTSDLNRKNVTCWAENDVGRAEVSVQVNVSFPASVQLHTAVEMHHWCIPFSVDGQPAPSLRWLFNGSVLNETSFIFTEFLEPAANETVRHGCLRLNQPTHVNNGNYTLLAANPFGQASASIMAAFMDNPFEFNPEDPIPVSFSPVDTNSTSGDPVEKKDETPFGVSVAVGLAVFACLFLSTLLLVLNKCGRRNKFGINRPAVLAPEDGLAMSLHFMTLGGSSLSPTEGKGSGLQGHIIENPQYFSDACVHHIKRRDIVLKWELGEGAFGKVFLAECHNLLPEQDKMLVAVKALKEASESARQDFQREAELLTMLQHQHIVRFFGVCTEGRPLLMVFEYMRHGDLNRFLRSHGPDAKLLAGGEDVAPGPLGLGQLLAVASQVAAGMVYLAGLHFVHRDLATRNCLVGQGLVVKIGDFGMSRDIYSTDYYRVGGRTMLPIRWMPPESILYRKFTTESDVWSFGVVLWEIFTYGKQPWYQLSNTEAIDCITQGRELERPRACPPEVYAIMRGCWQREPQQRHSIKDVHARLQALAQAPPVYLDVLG

Row | SMILES | IC50 (NTRK3) [nM] | IC50 (NTRK1; read-out: NTRK1 IC50) [nM] | IC50 (NTRK2) [nM] | also measured
1 | CC(C)N(Cc1ccc2[nH]ccc2c1)C(=O)Nc1ccc(OC(F)(F)F)cc1 [CDD-3265, 1-((1H-indol-5-yl)methyl)-1-isopropyl-3-(4-(trifluoromethoxy)phenyl)urea] | 55100 | 50100 | 53700 | 
2 | CC[C@@H](C)N(Cc1ccn2ncc(C(N)=O)c2c1)C(=O)Nc1ccc(OC(F)(F)F)cc1 [CDD-3057, (R)-5-((1-(sec-butyl)-3-(4-(trifluoromethoxy)phenyl)ureido)methyl)pyrazolo[1,5-a]pyridine-3-carboxamide] | 6.6 | 17.6 | 4 | 
3 | CC(C)CN(Cc1ccn2ncc(C(=O)O)c2c1)C(=O)Nc1ccc(OC(F)(F)F)cc1 [CDD-2742, 5-((1-isobutyl-3-(4-(trifluoromethoxy)phenyl)ureido)methyl)pyrazolo[1,5-a]pyridine-3-carboxylic acid] | 11.8 | 104 | 5.7 | 
4 | Cc1nnc2n1-c1ccc(Cl)cc1C(c1ccccc1)=NC2 [Alprazolam] |  |  |  | half-life [1]: 350 min; half-life [2]: 731 min
5 | O=C(Nc1ccc(OC(F)(F)F)cc1)N(Cc1ccn2nccc2c1)C1CC1 [CDD-2275, 1-cyclopropyl-1-(pyrazolo[1,5-a]pyridin-5-ylmethyl)-3-(4-(trifluoromethoxy)phenyl)urea] |  |  | 46 | half-life [1]: 56 min; half-life [2]: 90 min
6 | CC(C)N(Cc1ccn2ncc(Br)c2c1)C(=O)Nc1ccc(OC(F)(F)F)cc1 [CDD-2735, 1-((3-bromopyrazolo[1,5-a]pyridin-5-yl)methyl)-1-isopropyl-3-(4-(trifluoromethoxy)phenyl)urea] | 4.4 | 4.3 | 3.6 | 
7 | O=C(Nc1ccc(OC(F)(F)F)cc1)N(Cc1ccn2nccc2c1)C1CCCCC1 [CDD-2298, 1-cyclohexyl-1-(pyrazolo[1,5-a]pyridin-5-ylmethyl)-3-(4-(trifluoromethoxy)phenyl)urea] |  |  | 99 | 
8 | CC(C)N(Cc1ccn2nccc2c1)C(=O)CNc1ccc(C2(C(F)(F)F)CC2)cc1 [CDD-3307, N-isopropyl-N-(pyrazolo[1,5-a]pyridin-5-ylmethyl)-2-((4-(1-(trifluoromethyl)cyclopropyl)phenyl)amino)acetamide] | 922 | 2170 | 414 | 
9 | CC(C)c1ccc(OCC(=O)NCc2ccn3ncc(C(N)=O)c3c2)cc1 [CDD-3129, 5-((2-(4-isopropylphenoxy)acetamido)methyl)pyrazolo[1,5-a]pyridine-3-carboxamide] |  | 9540 | 3760 | 
10 | CN(Cc1ccn2ncc(C(N)=O)c2c1)C(=O)COc1ccc(C(F)(F)F)cc1 [CDD-3181, 5-((N-methyl-2-(4-(trifluoromethyl)phenoxy)acetamido)methyl)pyrazolo[1,5-a]pyridine-3-carboxamide] |  | 6720 | 1060 | 
11 | CNC(=O)[C@@H](Cc1ccc([N+](=O)[O-])cc1)NC(=O)Nc1ccc(Oc2ccccc2)cc1 [CDD-3100, (R)-N-methyl-3-(4-nitrophenyl)-2-(3-(4-phenoxyphenyl)ureido)propanamide] |  | 26300 | 37200 | 
12 | CN(Cc1ccn2ncc(C(N)=O)c2c1)C(=O)CCc1ccc(OC(F)(F)F)cc1 [CDD-3121, 5-((N-methyl-3-(4-(trifluoromethoxy)phenyl)propanamido)methyl)pyrazolo[1,5-a]pyridine-3-carboxamide] |  | 11600 | 3240 | 
13 | O=C(Nc1cccc(C(F)(F)F)c1)N(Cc1ccn2nccc2c1)C1CCC1 [CDD-2273, 1-cyclobutyl-1-(pyrazolo[1,5-a]pyridin-5-ylmethyl)-3-(3-(trifluoromethyl)phenyl)urea] |  |  | 1320 | half-life [1]: 8.2 min; half-life [2]: 15.5 min
14 | CN(Cc1ccn2ncc(C(N)=O)c2c1)C(=O)COc1ccc(C(C)(C)C)cc1 [CDD-3183, 5-((2-(4-(tert-butyl)phenoxy)-N-methylacetamido)methyl)pyrazolo[1,5-a]pyridine-3-carboxamide] |  | 3610 | 247 | 
15 | C[C@@H]1CCc2ncc(F)cc2[C@H]2CCCN2c2ccn3ncc(c3n2)C(=O)N1 [Selitrectinib, (6R,15R)-9-fluoro-15-methyl-2,11,16,20,21,24-hexazapentacyclo[16.5.2.02,6.07,12.021,25]pentacosa-1(24),7(12),8,10,18(25),19,22-heptaen-17-one, reference compound] |  |  |  | half-life [1]: 32 min; half-life [2]: 244 min
16 | CC[C@H](C)N(Cc1ccn2ncc(C(N)=O)c2c1)C(=O)Nc1ccc(OC(F)(F)F)cc1 [CDD-3058, (S)-5-((1-(sec-butyl)-3-(4-(trifluoromethoxy)phenyl)ureido)methyl)pyrazolo[1,5-a]pyridine-3-carboxamide] | 8.4 | 11.7 | 3.7 | 
17 | CC(C)N(Cc1ccn2nccc2c1)C(=O)CNc1ccc(C(C)(C)C)nc1 [CDD-3306, 2-((6-(tert-butyl)pyridin-3-yl)amino)-N-isopropyl-N-(pyrazolo[1,5-a]pyridin-5-ylmethyl)acetamide] | 4770 | 2410 | 1130 | 

Row | SMILES | IC50 (NTRK3) [nM] | IC50 (NTRK1; read-out: NTRK1 IC50) [nM] | IC50 (NTRK2) [nM] | also measured
18 | O=C(Nc1ccc(OC(F)(F)F)cc1)N(Cc1ccn2nccc2c1)C1CCCC1 [CDD-2276, 1-cyclopentyl-1-(pyrazolo[1,5-a]pyridin-5-ylmethyl)-3-(4-(trifluoromethoxy)phenyl)urea] |  |  | 19 | half-life [1]: 35 min; half-life [2]: 14 min
19 | CC(C)c1ccc(OCC(=O)N(C)Cc2ccn3ncc(C(N)=O)c3c2)cc1 [CDD-3120, 5-((2-(4-isopropylphenoxy)-N-methylacetamido)methyl)pyrazolo[1,5-a]pyridine-3-carboxamide] |  | 1780 | 242 | 
20 | CC(C)N(Cc1ccc2[nH]ccc2c1)C(=O)COc1ccc(OC(F)(F)F)cc1 [CDD-3264, N-((1H-indol-5-yl)methyl)-N-isopropyl-2-(4-(trifluoromethoxy)phenoxy)acetamide] | 21800 | 43900 | 2090 | 
21 | CC(C)N(Cc1ccn2ncc(F)c2c1)C(=O)Nc1ccc(OC(F)(F)F)cc1 [CDD-2734, 1-((3-fluoropyrazolo[1,5-a]pyridin-5-yl)methyl)-1-isopropyl-3-(4-(trifluoromethoxy)phenyl)urea] |  | 36 | 5.3 | half-life [1]: 21 min; half-life [2]: 58 min
22 | C[C@H]1CNC(=O)c2cnn3ccc(nc23)N[C@H](C)c2cc(F)ccc2O1 [Reprotrectinib, (3R,11S)-6-fluoro-3,11-dimethyl-10-oxa-2,13,17,18,21-pentazatetracyclo[13.5.2.04,9.018,22]docosa-1(21),4(9),5,7,15(22).16,19-heptaen-14-one, reference compound] |  |  |  | MLM t1/2 [1]: 167 min; HLM t1/2 [2]: 254 min
23 | CN(Cc1ccn2ncc(C(N)=O)c2c1)S(=O)(=O)Nc1ccc(OC(F)(F)F)cc1 [CDD-3308, 5-((methyl(N-(4-(trifluoromethoxy)phenyl)sulfamoyl)amino)methyl)pyrazolo[1,5-a]pyridine-3-carboxamide] | 4320 | 28400 | 4440 | 
24 | CN(Cc1ccn2ncc(C(N)=O)c2c1)C(=O)COc1cccc(OC(F)(F)F)c1 [CDD-3182, 5-((N-methyl-2-(3-(trifluoromethoxy)phenoxy)acetamido)methyl)pyrazolo[1,5-a]pyridine-3-carboxamide] |  | 4060 | 354 | 
25 | CCC(C)N(Cc1ccn2ncc(C(=O)O)c2c1)C(=O)Nc1ccc(OC(F)(F)F)cc1 (centres unmarked) [CDD-2743, 5-((1-(sec-butyl)-3-(4-(trifluoromethoxy)phenyl)ureido)methyl)pyrazolo[1,5-a]pyridine-3-carboxylic acid] | 5.4 | 9.5 | 6 | 
26 | O=C(Nc1ccc(OC(F)(F)F)cc1)N(Cc1ccn2nccc2c1)c1ccccc1 [CDD-2296, 1-phenyl-1-(pyrazolo[1,5-a]pyridin-5-ylmethyl)-3-(4-(trifluoromethoxy)phenyl)urea] |  |  | 335 | 
27 | O=C(O)c1cnn2ccc(CN(C(=O)Nc3ccc(OC(F)(F)F)cc3)C3CC3)cc12 [CDD-2736, 5-((1-cyclopropyl-3-(4-(trifluoromethoxy)phenyl)ureido)methyl)pyrazolo[1,5-a]pyridine-3-carboxylic acid] | 3.3 | 4.1 | 2.5 | 
28 | O=C(Nc1ccc([N+](=O)[O-])cc1)N(Cc1ccn2nccc2c1)C1CCC1 [CDD-2297, 1-cyclobutyl-3-(4-nitrophenyl)-1-(pyrazolo[1,5-a]pyridin-5-ylmethyl)urea] |  |  | > 10000 | 
29 | O=C(Nc1ccccc1OC(F)(F)F)N(Cc1ccn2nccc2c1)C1CCC1 [CDD-2300, 1-cyclobutyl-1-(pyrazolo[1,5-a]pyridin-5-ylmethyl)-3-(2-(trifluoromethoxy)phenyl)urea] |  |  | > 10000 | 
30 | NC(=O)c1cnn2ccc(CNC(=O)Nc3ccc(OC(F)(F)F)cc3)cc12 [CDD-3130, 5-((3-(4-(trifluoromethoxy)phenyl)ureido)methyl)pyrazolo[1,5-a]pyridine-3-carboxamide] |  | 9200 | 1260 | 
31 | O=C(Nc1ccc(OC(F)(F)F)cc1)N(Cc1ccn2nccc2c1)C1CCCCCC1 [CDD-2301, 1-cycloheptyl-1-(pyrazolo[1,5-a]pyridin-5-ylmethyl)-3-(4-(trifluoromethoxy)phenyl)urea] |  |  | 513 | 
32 | CN(C)C(=O)[C@H](Cc1cccc([N+](=O)[O-])c1)NC(=O)Nc1c(Cl)cccc1C(F)(F)F [CDD-3099, (S)-2-(3-(2-chloro-6-(trifluoromethyl)phenyl)ureido)-N,N-dimethyl-3-(3-nitrophenyl)propanamide] |  |  | 47400 | IC50 (NTRK1): 39600 nM
33 | CN(Cc1ccn2ncc(C(N)=O)c2c1)C(=O)CN(C)c1ccc(C(C)(C)C)cc1 [CDD-3185, 5-((2-((4-(tert-butyl)phenyl)(methyl)amino)-N-methylacetamido)methyl)pyrazolo[1,5-a]pyridine-3-carboxamide] |  | 10900 | 1750 | 
